Measured values reported in ChEMBL document CHEMBL4808244, “Design, synthesis and anti-fibrosis evaluation of imidazo[1,2-a]pyridine derivatives as potent ATX inhibitors” (Bioorg Med Chem, 2021).
Active and inactive are the calls of the source. No cut-off for these calls is given here.

These compounds were tested on Mus musculus (assay: Antifibrotic activity in C57BL/6J mouse model of bleomycin-induced idiopathic pulmonary fibrosis assessed as inhibition of changes in lung textures at 30-60 mg/kg, po dosed for 31 consecutive days followed by tracheal administration of bleomycin by masson's staining based histopathological analysis). Conditions: time 31.0 day.
Format: functional, organism-based
With `CCc1nc2c(C)cc(N3CCN(CC(=O)N4CC(O)C4)CC3)cn2c1N(C)c1nc(-c2ccc(F)cc2)c(C#N)s1` the inhibition was “Active”. In the case of `CCc1nc2c(C)cc(-c3ccc(CN4CCC(O)CC4)cc3)cn2c1NC(=O)NCc1ccc(F)cc1`, the inhibition is reported as “Active”.

These compounds were tested on Mus musculus (assay: Antifibrotic activity in C57BL/6 mouse model of bleomycin-induced idiopathic pulmonary fibrosis assessed as inhibition of collagen deposition at 30-60 mg/kg, po dosed for 31 consecutive days followed by tracheal administration of bleomycin by masson's staining based histopathological analysis). Conditions: time 31.0 day.
Format: functional, organism-based
With `CCc1nc2c(C)cc(N3CCN(CC(=O)N4CC(O)C4)CC3)cn2c1N(C)c1nc(-c2ccc(F)cc2)c(C#N)s1` the inhibition was “Active”. In the case of `CCc1nc2c(C)cc(-c3ccc(CN4CCC(O)CC4)cc3)cn2c1NC(=O)NCc1ccc(F)cc1`, the inhibition is reported as “Active”.

These compounds were tested on Mus musculus (assay: Antifibrotic activity in C57BL/6 mouse model of bleomycin-induced idiopathic pulmonary fibrosis assessed as survival rate at 30-60 mg/kg, po dosed for 31 consecutive days followed by tracheal administration of bleomycin relative to control). Conditions: C57BL/6, po, 744 h, time 31 day.
Format: functional
`CCc1nc2c(C)cc(-c3ccc(CN4CCC(O)CC4)cc3)cn2c1NC(=O)NCc1ccc(F)cc1` was tested, and the survival at 60 mg/kg was 100%.

Each compound was assayed against Autotaxin (Homo sapiens, UniProt Q13822) (assay: Inhibition of human ATX using FS-3 as substrate preincubated for 45 mins followed by substrate addition and measured every 1 min for 30 mins by fluorescence microplate reader assay). Conditions: not given.
`CCc1nc2c(C)cc(-c3ccc(C(=O)N4CCC(O)CC4)cc3)cn2c1NC(=O)NCc1ccc(OC)c(Cl)c1` gave an IC50 of 11.7 nM. In the case of `CCc1nc2c(C)cc(-c3ccc(C(=O)N4CCN(C)CC4)cc3)cn2c1NC(=O)NCc1ccc(F)cc1`, the IC50 is reported as 257 nM. With `CCc1nc2c(C)cc(-c3ccc(C(=O)N4CCN(C)CC4)cc3)cn2c1NC(=O)NCc1ccc(OC)c(Cl)c1` the IC50 was 213 nM. `CCc1nc2c(C)cc(-c3ccc(CN4CCOCC4)cc3)cn2c1NC(=O)NCc1ccc(Cl)cc1` showed an IC50 of 283 nM. `COc1ccc(CNC(=O)Nc2c(C)nc3c(C)cc(-c4ccc(CN5CCC(O)CC5)cc4)cn23)cc1Cl` showed an IC50 of 11 nM. Compound `CCc1nc2c(C)cc(-c3ccc(CN4CCN(CC)CC4)cc3)cn2c1NC(=O)NCc1ccc(Cl)cc1` has an IC50 of 688 nM. With `CCc1nc2c(C)cc(-c3ccc(CN4CCC[C@H]4CO)cc3)cn2c1NC(=O)NCc1ccc(OC)c(Cl)c1` the IC50 was 497 nM. `CCc1nc2c(C)cc(-c3ccc(CN4CCOCC4)cc3)cn2c1NC(=O)NCc1ccc(OC)c(Cl)c1` was tested, and the IC50 was 71.7 nM. `COc1ccc(CNC(=O)Nc2c(C)nc3c(C)cc(-c4ccc(CN5CCN(CCO)CC5)cc4)cn23)cc1Cl` was tested, and the IC50 was 79.1 nM. For `CCc1nc2c(C)cc(-c3ccc(CN4CCSCC4)cc3)cn2c1NC(=O)NCc1ccc(OC)c(Cl)c1`, the IC50 was greater than 1000 nM. With `CCc1nc2c(C)cc(-c3ccc(CN4CCN(C)CC4)cc3)cn2c1NC(=O)NCc1ccc(F)cc1` the IC50 was 451 nM. In the case of `CCc1nc2c(C)cc(-c3ccc(CN4CCC(O)CC4)cc3)cn2c1NC(=O)NCc1ccc(OC)c(Cl)c1`, the IC50 is reported as 7.41 nM. `CCc1nc2c(C)cc(-c3ccc(C(=O)N4CCCCC4)cc3)cn2c1NC(=O)NCc1ccc(F)cc1` showed an IC50 of 626 nM. Work on `CCc1nc2c(C)cc(-c3ccc(C(=O)N4CCC(O)CC4)cc3)cn2c1NC(=O)NCc1ccc(F)cc1` yielded an IC50 of 9.17 nM. `CCc1nc2c(C)cc(-c3ccc(CN4CCN(CCO)CC4)cc3)cn2c1NC(=O)NCc1ccc(OC)c(Cl)c1` showed an IC50 of 5.43 nM. In the case of `CCc1nc2c(C)cc(-c3ccc(CN4CCCC4)cc3)cn2c1NC(=O)NCc1ccc(Cl)cc1`, the IC50 is reported as 1070 nM. Compound `CCc1nc2c(C)cc(-c3ccc(CN4CCC(O)CC4)cc3)cn2c1NC(=O)NCc1ccc(Cl)cc1` has an IC50 of 237 nM. `CCc1nc2c(C)cc(-c3ccc(CN4CCC(O)CC4)cc3)cn2c1NC(=O)NCc1ccc(F)cc1` gave an IC50 of 1.72 nM. In the case of `CCc1nc2c(C)cc(-c3ccc(C(=O)N4CCN(CC)CC4)cc3)cn2c1NC(=O)NCc1ccc(F)cc1`, the IC50 is reported as greater than 1000 nM. For `CCc1nc2c(C)cc(-c3ccc(CN4CCCCC4)cc3)cn2c1NC(=O)NCc1ccc(Cl)cc1`, the IC50 was 647 nM.
